Where “and” joins values, the source holds several entries; their conditions need not be identical. Equal entries are not always repeated. Where two headings read alike, the source gives them in different places.
What was measured:
physchem = conditions: pH 3.8
[1] = test system: dogs with chronic non-seasonal atopic dermatitis; experiment: Atopic Dermatitis Dose Selection Study; type: in vivo, dog; conditions: oral
Source text: (§1) Minimum CADESI scores were assigned by a dermatologist or veterinarian (CADESI-01 score of 25 or CADESI-3 score of 60). Dogs were either 1 year of age or 6 months of age or older and weighed a minimum of 3 kg and were physically healthy apart from their atopic disease. The dogs had at least a 1 year or 6 month documented history of chronic non-seasonal atopic dermatitis. The dogs were flea free and appropriate preventatives and treatments were used throughout the study.

[2] = test system: client owned dogs with a history of chronic atopic dermatitis; experiment: Study in client owned dogs with chronic atopic dermatitis (Table 1); type: in vivo, dog; conditions: 0.19-0.39 mg/kg BID oral for 28 days; Day 1, 14 and 28
Experimental: A study was conducted in client owned dogs. Fifty-six dogs, greater than 1 year of age, weighing 2-50 kg, with a history of chronic atopic dermatitis were enrolled at three veterinary schools. The study design is illustrated in the following Table 1: […]

IL-12 and IL-23 = experiment: Inhibition of cytokines that utilize JAK2/TYK2 and not JAK1; type: cell-based
[3] = test system: dogs with moderate to severe itching (pruritus); experiment: Pruritus Study A (placebo controlled); type: in vivo, dog
Source text: (§2) Investigators attributed pruritus to one or more of the following: allergic dermatitis, atopic dermatitis, food allergy, contact allergy, flea allergy, sarcoptic mange. Dogs were six months of age or older, weighed a minimum of 3 kg and were physically healthy apart from their pruritic condition. Dogs were flea-free, and appropriate preventatives and treatments were used throughout the studies. The studies were designed as follows in Table 2 and Table 3.

[4] = dog, in vivo
Experimental: All doses are expressed in terms of mg/kg of free base. Serial blood samples for determination of pharmacokinetics were collected following Compound 1 administration. Blood samples at 0, 1, 4, 8, and 12 hours post dose were collected via jugular venipuncture into K2EDTA tubes and placed on ice until centrifuged. Harvested plasma was stored at approximately −20° C. until analysis.
Thirty-two beagle dogs (16 female, 16 male) were allocated to four treatment groups. Dogs in Treatment 1 received placebo capsule (0 mg/kg) orally. […] All dogs received a twice daily doses 0, 0.6, 1.8, and 3.0 mg/kg for weeks 1 through 6 and a single daily doses of 0, 0.6, 1.8, and 3.0 mg/kg for weeks 7 through 26. On pharmacokinetic sample collection days, dogs were fasted the previous night and fed four hours post dose administration. To calculate AUC0-24 for study days 53 and 168, steady-state was assumed and the 24 hour concentration was assumed to be equal to the 0 hour concentration, and used for the 0 hour concentration. As the actual doses of Compound 1 varied from the group target doses, the pharmacokinetic variables AUC0-τ, (AUC of the dosing interval), Cmax, and Cτ (trough concentration) were all normalized to the group target dose.

laboratory-bred dogs = test system: laboratory-bred dogs
Experimental: A target animal safety program (8 studies) was conducted. 131 laboratory-bred dogs were exposed to N-methyl-1-{trans-4-[methyl(7H-pyrrolo[2,3-d]pyrimidin-4-yl)amino]cyclohexyl}methanesulfonamide maleate (i.e. N-methyl-1-{trans-4-[methyl(7H-pyrrolo[2,3-d]pyrimidin-4-yl)amino]cyclohexyl}methanesulfonamide maleic acid salt maleic acid salt). Doses ranged from 0.5 mg/kg/day (0.25 mg/kg BID) to 18 mg/kg/day (9 mg/kg BID). Duration of exposure ranged from 10 days to 6 months. Recovery periods were incorporated into two studies. A series of early studies were designed to ensure the safety of client-owned dogs in the field safety and efficacy studies.
In a “margin of safety” study, the following treatments were given: […]

[5] = test system: JAK-1 dependent cytokines (e.g. IL-2, IL-4, IL-6, IL-13, and IL-31); experiment: Inhibition of JAK-1 dependent cytokines; type: cell-based
in vitro = conditions: human, Caco-2
Source text: The in vitro permeability of Compound 1 was experimentally determined in a Caco-2 cell monolayer study. […] The dog gastric pH has been reported to range from 1.08 to 2.0 (Sagawa, Li et al. 2009; Mahar, Portelli et al. 2012).

[6] = pH 5.5
laboratory dogs = experiment: High dose BID safety study in 6 month old laboratory dogs; type: in vivo, dog
Experimental: A high dose (3 mg/kg BID) was given to 6 month old laboratory dogs.

[7] = test system: client-owned dogs with chronic non-seasonal atopic dermatitis; type: in vivo; conditions: 0.4-0.6 mg/kg BID oral
Source text: as §1
In these studies, animals were administered from 0.4-0.6 mg/kg body weight of a JAK inhibitor BID for up to 112 days.

[8] = test system: the IL-10 family, the IL-12 family (that share the p40 subunit), or the IL-3 family; experiment: Inhibition of IL-10, IL-12 and IL-3 family cytokines; type: cell-based
[9] = test system: cytokine receptors that share the common gamma chain (e.g. IL-2R, IL-4R); experiment: Inhibition of cytokine function, common gamma chain receptors; type: cell-based; conditions: read-out: IC50's of representative family members
[10] = test system: cytokines that are exclusively dependent on JAK2 function (EPO, GM-CSF); experiment: Inhibition of cytokines exclusively dependent on JAK2; type: cell-based; conditions: ratio of IC50's
[11] = test system: dogs with moderate to severe itching (pruritus); experiment: Pruritus Study B (prednisolone controlled); type: in vivo, dog; conditions: day 14; oral BID for 14 days (prednisolone 0.25-0.5 mg/kg, compound 1 0.4-0.6 mg/kg); time zero about 75 mm
Source text: as §2

[12] = Other pharmacokinetic studies in dogs (IV and PO); conditions: for bioavailability: po
[13] = test system: cytokine receptors that share the gp130 subunit (e.g. IL-6) as well as IL-13; experiment: Inhibition of gp130 subunit cytokine receptors and IL-13; type: cell-based
[14] = dog, in vivo; remark: listed apart in the source

CNS(=O)(=O)C[C@H]1CC[C@H](N(C)c2ncnc3[nH]ccc23)CC1.O=C(O)/C=C\C(=O)O [Compound 1, N-methyl-1-{trans-4-[methyl(7H-pyrrolo[2,3-d]pyrimidin-4-yl)amino]cyclohexyl}methanesulfonamide maleate]
solubility (physchem): 10.4 mg/mL | Investigator CADESI score over 112 days, order of treatment groups from highest to lowest [1]: T01 (placebo), T04 (0.2-0.3 mg/kg SID compound 1), T03 (0.4-0.6 mg/kg SID compound 1), and T02 (0.4-0.6 mg/kg BID for 14 days followed by 0.4-0.6 mg/kg SID thereafter) | reduction in owner assessed VAS pruritus scores compared with placebo [2]: significantly (p≦0.07) different | IC50 (IL-12 and IL-23): > 3000 nM | owner VAS scores by day compared to placebo (T01) ([3]; 0.4-0.6 mg/kg BID oral for 7 days): lower each day starting on day 1 | LS mean owner VAS score ([3]; day 7, 0.4-0.6 mg/kg BID oral, time zero about 75 mm, placebo about 55 mm): about 25 mm | increase in mean AUC0-12 from Day 0 to Day 21 ([4]; both, beagle, po): 40% | male/female differences in pharmacokinetic parameters [4]: there did not appear to be any systematic male/female differences | increase in AUC0-12 and Cmax with dose ([4]; po, 3 mg/kg): dose proportional from 0.6 to 3.0 mg/kg | significant decreases in red blood cell parameters outside normal laboratory reference ranges (laboratory-bred dogs; 0.6 mg/kg dose): not detected | deaths or other serious adverse events (laboratory-bred dogs; 0.6, 1.8 or 3.0 mg/kg oral, BID weeks 1-6 then SID weeks 7-26): no observed deaths or other serious adverse events | IC50 [5]: < 249 nM and < 0.084 µg/mL | Papp (in vitro): 40.4 ×10⁻⁶ cm/s | solubility [6]: practically insoluble | effects observed (laboratory dogs; 0.6 mg/kg BID group): few effects | dogs with clinical signs of integument (demodex) (laboratory dogs; 3 mg/kg BID, 6 month old laboratory dogs): 7/8 | efficacy for the control of atopic dermatitis including pruritus [7]: excellent efficacy | inhibition of cytokines [8]: it does not appear that compound 1 inhibits | IC50 [9]: 63 nM to 249 nM and 0.021 µg/mL to 0.084 µg/mL | fold less potent than the JAK1-dependent cytokines (IL-2, 4, 6, 13, and 31) [10]: 4-17 fold | LS mean owner VAS score [11]: about 18 mm | calculated fraction absorbed ([12]; based on bioavailability 85%, clearance 4 mL/min/kg, blood flow 40 mL/min/kg): greater than 0.9 | half-life ([12]; dog, plasma): 4 h | clearance ([12]; dog, plasma, intravenous): 4 mL/min/kg | bioavailability ([12]; dog, plasma, absolute oral bioavailability, mean range, dogs): 79 to 89% | bioavailability ([12]; dog, plasma, bioavailability, value used to calculate fraction absorbed): 85% | volume of distribution ([12]; dogs): moderate volume of distribution | time of mean maximum plasma concentrations post dose ([12]; oral administration, dogs): approximately 1 hour | inhibition of cytokine receptor function [13]: inhibits the function | impact of breed on pharmacokinetic profile [14]: breed does not impact the pharmacokinetic profile

C[C@]12C=CC(=O)C=C1CC[C@@H]1[C@@H]2[C@@H](O)C[C@@]2(C)[C@H]1CC[C@]2(O)C(=O)CO [prednisolone, Prednisolone, reference compound]
LS mean owner VAS score [11]: about 10 mm
